Tests used:
[1] = Disarib solubility assay (shake flask method, HPLC); assay type: physicochemical; settings: Disarib 100 µM
Protocol: The solubility of Disarib was determined by the shake flask method, as described earlier. Briefly, Disarib (100 μM) was dissolved in various solvents such as alcohol (40, 60, 80 and 100%), acid (0.1, 0.3 and 0.6 N HCl) and DMSO (25, 50, 75 and 100%). Further, solubility of Disarib was also tested in a combination of alcohol (40, 60%) and acid (0.1, 0.3 N). The suspension was vortexed 2–3 min and kept in a water bath for 5 min, as described before[25],[26],[39]. In each case, the samples were diluted in acetonitrile and analyzed using HPLC in acetonitrile:water gradient[27],[40]. The area under the curve (AUC) was determined by using the software LabSolutions, Shimadzu (Japan). The values used for plotting in GraphPad Prism (ver 5.1) softwarewere the mean of three independent experiments. The samples were analyzed by HPLC using the Shimadzu HPLC system. LC was carried out on the C18 analytical column. The mobile phase was the gradient of acetonitrile and water. Disarib specific peaks were detected at 232 nm. The injection volume was 20 μl, and the flow rate was 1.2 ml/min. The standard curves were constructed by plotting the peak area vs. concentration of Disarib[40].

[2] = Stability of Disarib in PBS (HPLC); assay type: physicochemical; settings: 37 °C; 0, 2, 4, 6 h; HPLC peak
Protocol: (§1) The stability of Disarib (100 μM) was investigated in phosphate-buffered saline (PBS) and in plasma. The blood was collected from rats by heart puncture, and plasma was separated for the study. After the addition of Disarib into plasma or PBS, the mixture was incubated at 37 °C in water bath[25],[26]. The samples were then collected at different time points, 0, 2, 4, and 6 h, mixed manually with acetonitrile (1:1), and analyzed on HPLC[27],[40]. The values plotted represent the mean of three independent experiments. The samples were analyzed by HPLC using the Shimadzu HPLC system. LC was carried out on the C18 analytical column. The mobile phase was the gradient of acetonitrile and water. Disarib specific peaks were detected at 232 nm. The injection volume was 20 μl, and the flow rate was 1.2 ml/min. The standard curves were constructed by plotting the peak area vs. concentration of Disarib[40].

[3] = In vitro stability of Disarib in plasma (HPLC); assay type: in vitro ADME, rats; settings: 80% plasma diluted in PBS; 37 °C; 0, 2, 4, 6 h; HPLC peak
Protocol: as §1

Wistar rats [4] = assay: Haematological analysis after single oral dose; assay type: in vivo, Wistar rats (Rattus norvegicus); settings: for platelet count vs control / Eosinophils / MCH (mean corpuscular haemoglobin) / MCHC (mean corpuscular haemoglobin concentration) / MCV (mean cell volume) / Monocytes / PCV (packed cell volume): Wistar rats
Protocol: After 14 days of Disarib treatment, two animals from each group were sacrificed using CO2 asphyxiation, and blood was collected in EDTA-coated vials by heart puncture. Red blood cells (RBC), white blood cells (WBC), platelet counts (PLT), packed cell volume (PCV), hemoglobin (HGB), mean cell volume (MCV), mean corpuscular hemoglobin (MCH), mean corpuscular hemoglobin concentration (MCHC), lymphocytes, neutrophils, eosinophils and monocytes were analyzed as described before[28],[31],[43]. Analysis of blood samples was performed at Rohana Veterinary Diagnostic Lab, Bangalore, India.

Wistar rats [5] = assay: Histology (H&E) of organs; assay type: in vivo, Wistar rats (Rattus norvegicus); settings: 2000 mg/kg oral, day 14, H&E
Protocol: At the end of the experimental period (14 days), two animals from each group were sacrificed following CO2 asphyxiation. Liver, kidney, intestine, spleen, lungs, and heart were collected, fixed in 4% paraformaldehyde (PFA) and processed for histology, as described before[44]–[46]. For histological studies, tissues from rats treated with the highest dose (2000 mg/kg) and the vehicle control group were selected. Paraffin blocks were prepared and sections were taken using a rotary microtome (Leica Biosystems, Buffalo Grove, IL, USA) with a thickness of 5 µm. Following deparaffination, sections were stained with hematoxylin and eosin (H&E), mounted in DPX, and imaged under a bright-field microscope (Carl Zeiss AxioVision, Oberkochen, Germany).

[6] = parameters: method as in PMID 27693384; settings: mice, cited from earlier work
mice = settings: cited from earlier work
BCL-xL = test system: BCL-xL; parameters: method as in PMID 28223017, PMID 27693384; settings: cited from earlier work
[7] = test system: interaction of BCL2 with BAK; parameters: method as in PMID 28223017; settings: cited from earlier work
mice tumor models = settings: cited from earlier work
[8] = 100 mg/kg oral, day 14, animal a
[9] = 100 mg/kg oral, day 14, animal b
[10] = 1000 mg/kg oral, day 14, animal a
[11] = 1000 mg/kg oral, day 14, animal b
[12] = 2000 mg/kg oral, day 14, animal a
[13] = 2000 mg/kg oral, day 14, animal b
[14] = Wistar rats, 100, 1000, 2000 mg/kg oral, day 14

Compound: O=C1Nc2ccccc2/C1=C/c1c(-c2ccc(Br)cc2)nc2sc(Cc3ccc(Cl)cc3)nn12 [Disarib]
- solubility in HCl ([1]; 0.1, 0.3 and 0.6 N HCl tested): soluble only in higher acidic conditions such as 0.3 N HCl
- DMSO concentration giving complete dissolution ([1]; HPLC at 232 nm): > 75%
- solubility in alcohol in combination with HCl ([1]; alcohol 40, 60% with HCl): soluble in 40% alcohol and 0.3 and 0.6 N HCl
- stability in PBS [2]: stable in PBS up to 6 h
- stability in plasma [3]: gradually decreased in plasma with increasing time
- platelet count vs control (Wistar rats [4]; 100 mg/kg oral, day 14): such a difference was not observed
- Eosinophils (Wistar rats [4]; [8]): 1.0%
- MCH (mean corpuscular haemoglobin) (Wistar rats [4]; [8]): 21.9 pg
- MCHC (mean corpuscular haemoglobin concentration) (Wistar rats [4]; [8]): 36.5%
- MCV (mean cell volume) (Wistar rats [4]; [8]): 60.2 fL
- Monocytes (Wistar rats [4]; [8]): 3.5%
- PCV (packed cell volume) (Wistar rats [4]; [8]): 40.0%
- Eosinophils (Wistar rats [4]; [9]): 1.2%
- MCH (mean corpuscular haemoglobin) (Wistar rats [4]; [9]): 22.0 pg
- MCHC (mean corpuscular haemoglobin concentration) (Wistar rats [4]; [9]): 33.0%
- MCV (mean cell volume) (Wistar rats [4]; [9]): 66.6 fL
- Monocytes (Wistar rats [4]; [9]): 4.2%
- PCV (packed cell volume) (Wistar rats [4]; [9]): 38.4%
- platelet count vs control (Wistar rats [4]; 1000 mg/kg b. wt. oral, day 14): marginal variation
- Eosinophils (Wistar rats [4]; [10]): 1.0%
- MCH (mean corpuscular haemoglobin) (Wistar rats [4]; [10]): 21.2 pg
- MCHC (mean corpuscular haemoglobin concentration) (Wistar rats [4]; [10]): 32.3%
- MCV (mean cell volume) (Wistar rats [4]; [10]): 65.7 fL
- Monocytes (Wistar rats [4]; [10]): 3.2%
- PCV (packed cell volume) (Wistar rats [4]; [10]): 40.2%
- Eosinophils (Wistar rats [4]; [11]): 1.2%
- MCH (mean corpuscular haemoglobin) (Wistar rats [4]; [11]): 21.9 pg
- MCHC (mean corpuscular haemoglobin concentration) (Wistar rats [4]; [11]): 27.9%
- MCV (mean cell volume) (Wistar rats [4]; [11]): 78.6 fL
- Monocytes (Wistar rats [4]; [11]): 8.1%
- PCV (packed cell volume) (Wistar rats [4]; [11]): 36.9%
- platelet count vs control (Wistar rats [4]; 2000 mg/kg oral, day 14): such a difference was not observed
- Eosinophils (Wistar rats [4]; [12]): 1.0%
- MCH (mean corpuscular haemoglobin) (Wistar rats [4]; [12]): 21.2 pg
- MCHC (mean corpuscular haemoglobin concentration) (Wistar rats [4]; [12]): 33.4%
- MCV (mean cell volume) (Wistar rats [4]; [12]): 63.7 fL
- Monocytes (Wistar rats [4]; [12]): 2.4%
- PCV (packed cell volume) (Wistar rats [4]; [12]): 41.2%
- Eosinophils (Wistar rats [4]; [13]): 1.1%
- MCH (mean corpuscular haemoglobin) (Wistar rats [4]; [13]): 20.7 pg
- MCV (mean cell volume) (Wistar rats [4]; [13]): 63.3 fL
- Monocytes (Wistar rats [4]; [13]): 3.0%
- PCV (packed cell volume) (Wistar rats [4]; [13]): 43.3%
- HGB content vs control (Wistar rats [4]; [14]): no significant difference
- WBC counts vs control (Wistar rats [4]; [14]): no significant difference
- lymphocytes count vs control (Wistar rats [4]; [14]): no significant difference
- neutrophils count vs control (Wistar rats [4]; [14]): no significant difference
- total number of RBC vs control (Wistar rats [4]; [14]): no significant difference
- intestine histology (Wistar rats [5]): Normal structure and organization
- kidney histology (Wistar rats [5]): No glomerular dilation and tubular necrosis
- liver histology (Wistar rats [5]): no cellular change in lobular liver texture, hepatocytes and sinusoidal spaces
- lungs and heart histology (Wistar rats [5]): did not show difference in the structure of alveoli and cardiac muscles
- spleen histology (Wistar rats [5]): no difference in spleen architecture
- time at which maximum circulating concentration (Cmax) was obtained ([6]; 10 mg/kg intraperitoneal): 30 min
- clearance rate (CL) [6]: 6.3 mL/min/kg
- t1/2 [6]: 2.3 h
- visible toxicity (mice; highest dose 2000 mg/kg oral): did not cause any visible toxicity
- LD50 (mice; oral route): > 2000 mg/kg
- platelet count (mice; oral, even at the highest dose): did not affect the platelet count
- interaction with BCL-xL (BCL-xL): not with other antiapoptotic proteins such as BCL-xL
- disruption of BCL2-BAK interaction [7]: disruption of the interaction of BCL2 with its proapoptotic partner BAK
- tumor regression (mice tumor models; mice, intraperitoneal route): efficient tumor regression comparable to that of ABT199
- tumor progression (mice tumor models; oral administration, multiple mice tumor models): significant reduction in tumor progression
